{"source": "patent US10294202B2", "about": "“Pyrrolidinones as herbicides” (FMC Corporation, priority 2013, dated 2019)", "key": {"corn [1]": {"tested_on": "corn", "assay": "Test C pre-/postemergence herbicide test", "format": "in vivo, Zea mays", "conditions": "Preemergence", "outline": "(§1)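 Plants grown and held in a greenhouse for 13 to 15 days post-spray, then rated 0–100 by visual comparison with controls. Pre treatments targeted seeds in loam and sand; post treatments targeted 1- to 4-leaf plants in peat-based potting medium.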"}, "morningglory": {"tested_on": "morningglory", "assay": "Test C pre-/postemergence herbicide test", "format": "in vivo, Ipomoea coccinea", "conditions": "Preemergence", "outline": "as §1"}, "soybean": {"tested_on": "soybean", "assay": "Test C pre-/postemergence herbicide test", "format": "in vivo, Glycine max", "conditions": "Preemergence", "outline": "as §1"}, "oilseed rape": {"tested_on": "oilseed rape", "assay": "Test C pre-/postemergence herbicide test", "format": "in vivo, Brassica napus", "conditions": "Preemergence", "outline": "as §1"}, "blackgrass": {"tested_on": "blackgrass", "assay": "Test C pre-/postemergence herbicide test", "format": "in vivo, Alopecurus myosuroides", "conditions": "Preemergence", "outline": "as §1"}, "corn [2]": {"tested_on": "corn", "assay": "Test A pre-/postemergence herbicide test", "format": "in vivo, Zea mays", "outline": "(§2)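 Approximately 10 days after treatment in the greenhouse, plants were compared with untreated controls and given a 0–100 visual injury rating. Applications: preemergence directed soil spray; postemergence on 2–10 cm plants at the one- to two-leaf stage.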"}, "lambsquarters": {"tested_on": "lambsquarters", "assay": "Test C pre-/postemergence herbicide test", "format": "in vivo, Chenopodium album", "conditions": "Preemergence", "outline": "as §1"}, "barnyardgrass": {"tested_on": "barnyardgrass", "assay": "Test A pre-/postemergence herbicide test", "format": "in vivo, Echinochloa crus-galli", "outline": "as §2"}, "ducksalad": {"tested_on": "ducksalad", "assay": "Test B flooded paddy test", "format": "in vivo, Heteranthera limosa", "conditions": "250 g ai/ha, Flood; scale of 0 to 100 where 0 is no effect and 100 is complete control", "outline": "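Scored visually 0–100 (0 no effect, 100 complete control) versus controls after 13 to 15 greenhouse days. Treatment: compound added to paddy water kept 3 cm above soil, on 2-leaf-stage plants.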"}, "pigweed": {"tested_on": "pigweed", "assay": "Test A pre-/postemergence herbicide test", "format": "in vivo, Amaranthus retroflexus", "outline": "as §2"}, "nutsedge, yellow": {"tested_on": "nutsedge, yellow", "assay": "Test C pre-/postemergence herbicide test", "format": "in vivo, Cyperus esculentus", "conditions": "Preemergence", "outline": "as §1"}, "[3]": {"conditions": "31 g ai/ha, scale 0 to 100, 0 is no effect and 100 is complete control"}, "[4]": {"conditions": "125 g ai/ha, scale 0 to 100 (0 no effect, 100 complete control)"}, "[5]": {"conditions": "Postemergence, 125 g ai/ha, 0 to 100 scale, 0 no effect, 100 complete control"}, "[6]": {"conditions": "Postemergence, 500 g ai/ha, 0 to 100 scale (0 no effect, 100 complete control)"}, "[7]": {"conditions": "Preemergence, 125 g ai/ha, visual rating on 0 to 100 scale (0 no effect, 100 complete control)"}, "[8]": {"conditions": "preemergence, 500 g ai/ha, 0 to 100 scale"}}}
{"smiles": "O=C1NCC(c2ccc(F)c(C(F)(F)F)c2)C1C(=O)Nc1ccccc1C(F)(F)F", "note": "(racemic) [Compound 78]", "values": [{"measurement": "Corn plant response rating", "setting": "corn [1]; [3]", "value": 0}, {"measurement": "Plant response rating, Corn", "setting": "corn [1]; 62 g ai/ha, scale 0 to 100", "value": 0}, {"measurement": "Plant response rating, Corn", "setting": "corn [1]; [4]", "value": 40}, {"measurement": "Plant response rating (scale of 0 to 100), Corn", "setting": "corn [1]; 250 g ai/ha", "value": 60}, {"measurement": "Morningglory plant response rating", "setting": "morningglory; [3]", "value": 0}, {"measurement": "Plant response rating, Morningglory", "setting": "morningglory; 62 g ai/ha, scale 0 to 100", "value": 0}, {"measurement": "Plant response rating, Morningglory", "setting": "morningglory; [4]", "value": 0}, {"measurement": "Plant response rating (scale of 0 to 100), Morningglory", "setting": "morningglory; 250 g ai/ha", "value": 0}, {"measurement": "Soybean plant response rating", "setting": "soybean; [3]", "value": 0}, {"measurement": "Plant response rating, Soybean", "setting": "soybean; 62 g ai/ha, scale 0 to 100", "value": 0}, {"measurement": "Plant response rating, Soybean", "setting": "soybean; [4]", "value": 0}, {"measurement": "Plant response rating (scale of 0 to 100), Soybean", "setting": "soybean; 250 g ai/ha", "value": 0}, {"measurement": "Oilseed Rape plant response rating", "setting": "oilseed rape; [3]", "value": 0}, {"measurement": "Plant response rating, Oilseed Rape", "setting": "oilseed rape; 62 g ai/ha, scale 0 to 100", "value": 10}, {"measurement": "Plant response rating, Oilseed Rape", "setting": "oilseed rape; [4]", "value": 10}, {"measurement": "Plant response rating (scale of 0 to 100), Oilseed Rape", "setting": "oilseed rape; 250 g ai/ha", "value": 75}, {"measurement": "Blackgrass plant response rating", "setting": "blackgrass; [3]", "value": 30}, {"measurement": "Plant response rating, Blackgrass", "setting": "blackgrass; 62 g ai/ha, scale 0 to 100", "value": 75}, {"measurement": "Plant response rating, Blackgrass", "setting": "blackgrass; [4]", "value": 75}, {"measurement": "Plant response rating (scale of 0 to 100), Blackgrass", "setting": "blackgrass; 250 g ai/ha", "value": 85}, {"measurement": "Plant response rating, Corn", "setting": "corn [2]; [5]", "value": 20}, {"measurement": "Plant response rating, Corn", "setting": "corn [2]; [6]", "value": 50}, {"measurement": "Corn plant response rating", "setting": "corn [2]; [7]", "value": 0}, {"measurement": "Plant response rating, Corn", "setting": "corn [2]; [8]", "value": 0}, {"measurement": "Plant response rating, Lambsquarters", "setting": "lambsquarters; 62 g ai/ha, scale 0 to 100", "value": 40}, {"measurement": "Plant response rating, Lambsquarters", "setting": "lambsquarters; [4]", "value": 85}, {"measurement": "Plant response rating (scale of 0 to 100), Lambsquarters", "setting": "lambsquarters; 250 g ai/ha", "value": 85}, {"measurement": "Plant response rating, Barnyardgrass", "setting": "barnyardgrass; [5]", "value": 50}, {"measurement": "Plant response rating, Barnyardgrass", "setting": "barnyardgrass; [6]", "value": 70}, {"measurement": "Barnyardgrass plant response rating", "setting": "barnyardgrass; [7]", "value": 80}, {"measurement": "Plant response rating, Barnyardgrass", "setting": "barnyardgrass; preemergence, 500 g ai/ha, 0 to 100 scale (0 no effect, 100 complete control)", "value": 90}, {"measurement": "Plant response rating, Ducksalad", "setting": "ducksalad", "value": 85}, {"measurement": "Plant response rating, Pigweed", "setting": "pigweed; [5]", "value": 50}, {"measurement": "Plant response rating, Pigweed", "setting": "pigweed; [6]", "value": 50}, {"measurement": "Pigweed plant response rating", "setting": "pigweed; [7]", "value": 10}, {"measurement": "Plant response rating, Pigweed", "setting": "pigweed; [8]", "value": 60}, {"measurement": "Nutsedge, Yellow plant response rating", "setting": "nutsedge, yellow; [3]", "value": 0}, {"measurement": "Plant response rating, Nutsedge, Yellow", "setting": "nutsedge, yellow; 62 g ai/ha, scale 0 to 100", "value": 0}, {"measurement": "Plant response rating, Nutsedge, Yellow", "setting": "nutsedge, yellow; [4]", "value": 0}, {"measurement": "Plant response rating (scale of 0 to 100), Nutsedge, Yellow", "setting": "nutsedge, yellow; 250 g ai/ha", "value": 0}]}
